Source: patent US20250134861A1, “COMPOSITIONS COMPRISING 5-METHOXY-N,N-DIMETHYLTRYPTAMINE (5-MEO-DMT) FOR USE IN TREATING MENTAL DISORDERS” (GH RESEARCH IRELAND LIMITED, priority 2019, published 2025)

Tests used:
[1] = tested on: patients with treatment-resistant major depressive disorder; assay: Clinical trial of inhaled 5-MeO-DMT in TRD patients: intensity of the psychedelic effects (MEQ30, ASC, PPEQ); assay type: in vivo, human; conditions: single 12 mg inhaled dose
Protocol: The following questionnaire is applied in situations where the acute psychedelic experience after treatment with 5-MeO-DMT needs to be quantified. At the end of relevant treatment sessions, the patient is handed a paper form and asked to rate the degree to which at any time during that session they experienced any of the phenomena listed below using the scale listed below. The MEQ30 is then computed and the occurrence of a peak psychedelic experience is then evaluated as described under scoring instructions.
The score for each individual subscale is computed by calculating the average score (from the scale of 0 to 5) for the phenomena belonging to the subscale as listed below.
The MEQ30-total score is computed by taking the average response to all phenomena. Patients or probands with a score≥60% of the maximum possible score on each of the four subscales of the MEQ30 are considered to have experienced a “peak psychedelic experience”.
(§1) The Peak Psychedelic Experience Questionnaire (PPEQ) has been developed by the inventor as an improved alternative to the oceanic boundlessness dimension of the ASC and the MEQ30 to allow a simpler and quicker assessment of the intensity of a psychedelic experience.

[2] = tested on: patients with treatment-resistant major depressive disorder; assay: Clinical trial of inhaled 5-MeO-DMT in TRD patients: safety and tolerability; assay type: in vivo, human
healthy volunteers [3] = assay: Clinical trial of inhaled 5-MeO-DMT in healthy volunteers: intensity of the psychedelic effects (PPEQ); assay type: in vivo, human
Protocol: (§2) The trial consisted of two parts: Part A, where single doses of 5-MeO-DMT dosage amounts of 2 mg, 6 mg, 12 mg and 18 mg were administered; and Part B, where an initial 5-MeO-DMT dosage amount of 6 mg was administered, and then, unless the participant had already experienced a peak psychedelic experience based on the PPEQ or the supervising physician had decided that further dose increases were inappropriate based on observed side effects, further subsequent dosage amounts of 12 mg and 18 mg were administered with about 3 hours in between each administration. […] Pharmacokinetic analysis of 5-MeO-DMT and bufotenine plasma levels was performed at 1 hour and 3 hours after drug administration in Part A, and at 3 hours after drug administration in Part B.
18 participants were recruited into Part A of the study and 4 participants were recruited into Part B. 9 Participants were female and 13 participants were male. Median age was 29 years (range: 19 to 42 years). […]
as §1, with “experience. The PPEQ is comprised of three questions, all to be scored from 0 to 100 by marking a Visual Analogue Scale between 0 and 100 mm: • 1. […]” for “experience.”

healthy volunteers [4] = assay: Clinical trial of inhaled 5-MeO-DMT in healthy volunteers: safety and tolerability; assay type: in vivo, human
Protocol: as §2
18 participants were recruited into Part A of the study and 4 participants were recruited into Part B. 9 Participants were female and 13 participants were male. Median age was 29 years (range: 19 to 42 years). In Part A, 4 participants received 2 mg, 6 participants received 6 mg, 4 participants received 12 mg and 4 participants received 18 mg of 5-MeO-DMT. In Part B, 1 participant received 6 mg, 2 participants received 6 mg and then 12 mg and one participant received 6 mg, 12 mg and then 18 mg of 5-MeO-DMT.

[5] = Clinical trial of inhaled 5-MeO-DMT in healthy volunteers: 5-MeO-DMT and bufotenine plasma levels; assay type: in vivo, human
Protocol: as §2

[6] = tested on: respondents with self-reported psychiatric conditions; conditions: majority of respondents; ritual or recreational use; observational; cited from earlier work
[7] = both patients, single 12 mg inhaled dose
[8] = Part A, 2 mg single inhaled dose (n = 4), Administration day, possibly or probably related, mild
[9] = Part A, 6 mg single inhaled dose (n = 6), Administration day, possibly or probably related, mild
[10] = Part A, 6 mg single inhaled dose (n = 6), Day 1, possibly or probably related, mild
[11] = Part A, 18 mg single inhaled dose (n = 4), Administration day, possibly or probably related, mild
[12] = Part A, 18 mg single inhaled dose (n = 4), Day 1, possibly or probably related, mild
[13] = Part B, 12 mg (n = 3), after 6 mg, Administration day, possibly or probably related, mild

COc1ccc2[nH]cc(CCN(C)C)c2c1 [5-MeO-DMT, 5-methoxy-N,N-dimethyltryptamine]
PPE achieved (ASC: at least 60% of the maximum possible score of the Oceanic Boundlessness dimension) ([1]; Patient 1): Yes | PPE achieved (MEQ30: at least 60% of the maximum possible score in each of the four subscales) ([1]; Patient 1): Yes | PPE achieved (PPEQ Total Score of at least 75) ([1]; Patient 1): Yes | PPE achieved (ASC: at least 60% of the maximum possible score of the Oceanic Boundlessness dimension) ([1]; Patient 2): No | PPE achieved (MEQ30: at least 60% of the maximum possible score in each of the four subscales) ([1]; Patient 2): Yes | PPE achieved (PPEQ Total Score of at least 75) ([1]; Patient 2): Yes | Onset of the first psychedelic symptoms after the inhalation ([1]; both patients): within a few seconds | Reported adverse events ([2]; Patient 1, single 12 mg inhaled dose, Day 1): Headache, Flashback | Reported adverse events ([2]; Patient 1, single 12 mg inhaled dose, Day 7): Headache | Reported adverse events ([2]; Patient 1, single 12 mg inhaled dose, administration day): Dizziness | Reported adverse events ([2]; Patient 2, single 12 mg inhaled dose, Day 1): Headache | Reported adverse events ([2]; Patient 2, single 12 mg inhaled dose, Day 7): None reported | Reported adverse events ([2]; Patient 2, single 12 mg inhaled dose, administration day): None reported | Assessments of ECG, safety laboratory analyses, CADSS and cognitive tests (PVT, DSST) ([2]; both patients, ECG at 3 hours, laboratory at 3 hours and 7 days, CADSS at 3 hours, 1 day, 7 days, cognitive tests at 1 day and 7 days): unremarkable | Changes in vital parameters ([2]; both patients, shortly after single 12 mg inhaled dose, no other noteworthy changes): temporary, not clinically relevant increase in heart rate and blood pressure | Severity and course of reported adverse events [2, 7]: mild, short-lasting and resolved spontaneously | Tolerability of the inhalation procedure [2, 7]: well tolerated with no inhalation-related adverse events | Intensity of the psychedelic experience with dose escalation (healthy volunteers [3]; Part B, 6 mg, then 12 mg and 18 mg about 3 hours apart): increased with the increasing dosage amounts in all participants | Onset of the first psychedelic symptoms after the inhalation (healthy volunteers [3]; all participants, 2 to 18 mg inhaled): within a few seconds | Evaluation of ECG, safety laboratory analyses, CADSS and cognitive tests (PVT, DSST, PMT) (healthy volunteers [4]; Part A and Part B): unremarkable | Severity and course of reported adverse events (healthy volunteers [4]; Part A and Part B): all mild (except for one moderate event) and all resolved spontaneously | Inhalation-related adverse events (healthy volunteers [4]; Part A and Part B, 2 to 18 mg inhaled): No inhalation-related adverse events | Adverse events reported: Nausea (healthy volunteers [4]; [8]): 2 | Adverse events reported: Tachycardia (healthy volunteers [4]; [8]): 1 | Adverse events reported: Vision blurred (healthy volunteers [4]; [8]): 1 | Adverse events reported: Anxiety (healthy volunteers [4]; [9]): 1 | Adverse events reported: Headache (healthy volunteers [4]; [9]): 1 | Adverse events reported: Nausea (healthy volunteers [4]; [9]): 1 | Adverse events reported: Clumsiness (healthy volunteers [4]; [10]): 1 | Adverse events reported: Feeling hot (healthy volunteers [4]; [10]): 1 | Adverse events reported: Headache (healthy volunteers [4]; [10]): 1 | Adverse events reported: Anxiety (healthy volunteers [4]; Part A, 12 mg single inhaled dose (n = 4), Administration day, possibly or probably related, mild): 1 | Adverse events reported: Heart rate increased (healthy volunteers [4]; Part A, 12 mg single inhaled dose (n = 4), Administration day, possibly or probably related, this event was moderate): 1^1 | Adverse events reported: Headache (healthy volunteers [4]; [11]): 1 | Adverse events reported: Nausea (healthy volunteers [4]; [11]): 1 | Adverse events reported: Abnormal dreams (healthy volunteers [4]; [12]): 1 | Adverse events reported: Fatigue (healthy volunteers [4]; [12]): 1 | Adverse events reported: Hallucination (healthy volunteers [4]; [12]): 1 | Adverse events reported: Hyperacusis (healthy volunteers [4]; [12]): 1 | Adverse events reported: Insomnia (healthy volunteers [4]; [12]): 1 | Adverse events reported: Mental fatigue (healthy volunteers [4]; [12]): 1 | Adverse events reported: Flashback (healthy volunteers [4]; Part A, 18 mg single inhaled dose (n = 4), Day 7, possibly or probably related, mild): 1 | Adverse events reported: Nausea (healthy volunteers [4]; Part B, 6 mg inhaled (n = 4), Administration day, possibly or probably related, mild): 1 | Adverse events reported: Fatigue (healthy volunteers [4]; [13]): 1 | Adverse events reported: Head discomfort (healthy volunteers [4]; [13]): 1 | Adverse events reported: Headache (healthy volunteers [4]; [13]): 1 | Adverse events reported: Nausea (healthy volunteers [4]; [13]): 1 | Adverse events reported (healthy volunteers [4]; Part B, 18 mg (n = 1), after 12 mg and 6 mg, Administration day, Day 1 and Day 7): None reported | Changes in vital parameters (healthy volunteers [4]; shortly after administration, no other noteworthy changes): temporary, not clinically relevant increase in heart rate and blood pressure | 5-MeO-DMT plasma levels ([5]; Part A and Part B, 3-hour time point, LLOQ of the 5-MeO-DMT assay 0.014 ng/ml): reached the lower level of quantification (LLOQ) | 5-MeO-DMT plasma levels ([5]; any dose in Part A, 1-hour timepoint): very low | Self-perceived change of psychiatric symptoms (anxiety, depression, substance use problems, post-traumatic stress disorder) [6]: perceived improvements in symptoms
